In patent US7713998B2, “Nitrogenous heterocyclic compound and pharmaceutical use thereof” (Ono Pharmaceutical Co., Ltd., priority 2004, dated 2010):

Columns and labels:
[1] = tested on: TNF-α production induced by lipopolysaccharide (LPS) in rats; experiment: Rat cytokine-production model; assay type: in vivo
Protocol: (3) Rat Cytokine-production Model
The in vivo effect of the compound of the present invention was studied on TNF-α production induced by lipopolysaccharide (LPS) in rats.
A vehicle containing the compound of the present invention was orally administered to male Lew mice (Charles River Japan, Inc.), and after 2 hours, lipopolysaccharide (LPS, 055:B5, Difco) was intravenously administered at the dose of 10 μg/kg (5 animals/group). Only a vehicle was orally administered to a control group (5 animals). Ninety minutes after the LPS treatment, heparinized blood collection was performed via the abdominal cava vein under anesthesia with ether, and blood plasma was obtained by centrifugation (12,000 rpm, 3 minutes, 4° C.). The obtained blood plasma sample was stored at −80° C. until it was used. TNF-α in the blood plasma was measured using an ELISA kit from Genzyme/Techne (#10516).
The inhibitory activity of the compound of the present invention against TNF-α production was calculated as an inhibition rate (%) according to the following equation: Inhibition rate (%)={(AC−AX)/AC}×100
wherein AC is a measured value in case where no test compound was administered under LPS induction, and
AX is a measured value in case where a test compound was administered under LPS induction.

[2] = tested on: TNF-α production stimulated by lipopolysaccharide (LPS) in THP-1; experiment: Inhibitory activity against TNF-α production using human cell lines (THP-1, LPS); assay type: cell-based; settings: 1.5 h, THP-1 cells, 90 minutes, TNF-α in supernatant by ELISA
Protocol: (2) Inhibitory Activity Against TNF-α Production Using Human Cell Lines
Using THP-1 which is a human monocytic cell line, the inhibitory effect of the compound of the present invention against TNF-α production stimulated by lipopolysaccharide (LPS) was studied.
Each 50 μL of lipopolysaccharide (LPS; Difco #3120-25-0) prepared to a concentration of 40 ng/mL using RPMI-1640 medium containing 10% fetal calf serum (hereinafter abbreviated to RPMI-1640) and RPMI-1640 containing the compound of the present invention was added to a 96-well plate for cell culture. One hundred μL of the cell suspension of THP-1 (Dainippon Pharmaceutical Co., Ltd, #06-202) prepared to a cell density of 2×10^6 cells/mL using RPMI-1640 was added and cultured for 90 minutes at 37° C. in an incubator (5% CO2, 95% air). After completion of the reaction, the culture medium supernatant was recovered and the amount of produced TNF-α was measured using an ELISA kit (Invitrogen, #850090192).
The inhibitory activity against TNF-α production, which is the effect of the compound of the present invention, was calculated as an inhibition rate (%) by the following equation: Inhibition rate (%)={(AC−AX)/(AC−AB)}×100
wherein AB is a measured value without LPS induction;
AC is a measured value with LPS induction in the absence of a test compound; and
AX is a measured value with LPS induction in the presence of a test compound. […]

[3] = target: recombinant human p38α MAP kinase (Homo sapiens, UniProt Q16539); experiment: Study on p38α MAP kinase inhibitory activity (ATF2 phosphorylation, Alpha Screen); assay type: biochemical; settings: phosphorylation of biotinylated ATF2 by recombinant human p38α MAP kinase, 30° C. 30 minutes
Chain of recombinant human p38α MAP kinase (Q16539 whole entry): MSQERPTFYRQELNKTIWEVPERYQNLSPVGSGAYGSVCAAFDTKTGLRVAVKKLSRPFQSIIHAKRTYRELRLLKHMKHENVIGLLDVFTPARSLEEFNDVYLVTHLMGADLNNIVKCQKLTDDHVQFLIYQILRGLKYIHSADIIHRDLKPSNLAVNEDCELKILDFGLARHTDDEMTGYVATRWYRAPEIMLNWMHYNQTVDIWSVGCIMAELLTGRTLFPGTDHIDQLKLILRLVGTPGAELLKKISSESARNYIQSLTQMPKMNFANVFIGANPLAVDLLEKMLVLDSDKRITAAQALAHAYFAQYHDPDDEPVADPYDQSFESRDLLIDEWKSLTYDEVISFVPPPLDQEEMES
Protocol: (1) Study on p38α Map Kinase Inhibitory Activity
Using activating transcription factor −2 (hereinafter abbreviated to ATF2) which is a substrate for p38α MAP kinase, the inhibitory action of the compounds of the present invention was investigated on the phosphorylation by a recombinant human p38α MAP kinase.
A kinase buffer (25 mM Tris-HCl (pH 7.5), 5 mM β-glycerophosphate, 2 mM dithiothreitol, 0.1 mM Na3VO4, 10 mM MgCl2) containing a recombinant human p38a MAP kinase was added to a 384-well plate (5 μL)(6.25 ng protein/well) for fluorescence measurement. After addition of a kinase buffer (5 μL) containing the compound of the present invention, the resulting mixture was incubated at room temperature for 20 minutes. […] The amount of a complex of the phosphorylated ATF2 and anti-phosphorylated ATF2 antibody produced by the reaction was measured using an Alpha Screen™ Rabbit Detection kit (Packard #6760607).
The p38α MAP kinase inhibitory activity, which is the effect of the compound of the present invention, was calculated as an inhibition rate (%) according to the following equation: Inhibition rate (%)={(AC−AX)/(AC−AB)}×100
wherein AB is a measured value without addition of the enzyme;
AC is a measured value with addition of the enzyme in the absence of a test compound; and
AX is a measured value with addition of the enzyme in the presence of a test compound. […]

Row | Structure (SMILES) | inhibition against in vivo TNF-α production induced by LPS stimulation ([1]; dose of 10 mg/kg, same experimental model) [%] | IC50 [2] [nM] | IC50 [3] [nM] | TNF-α production inhibitory activity stronger by a factor than that of the compound disclosed in WO 01/030778 ([1]; comparison in same experimental model (1 mg/kg vs 10 mg/kg)) | inhibition against in vivo TNF-α production induced by LPS stimulation ([1]; dose of 1 mg/kg orally, LPS 10 μg/kg i.v. after 2 hours, plasma 90 minutes after LPS) [%]
1 | C[C@H](Nc1cc(-c2sc(C3CCN(C)CC3)nc2-c2ccc(F)cc2)ccn1)c1ccccc1 [compound disclosed in WO 01/030778, 4-[4-(4-fluorophenyl)-2-(1-methyl-4-piperidinyl)-1,3-thiazol-5-yl]-N-[(1S)-1-phenylethyl]-2-pyridinamine, reference compound] | 95 | – | – | – | –
2 | CN1CCC(c2nc(-c3ccc(=O)n(-c4c(Cl)cccc4Cl)c3)c(-c3ccc(F)cc3Cl)s2)CC1 [Example 10(2), 5-[5-(2-chloro-4-fluorophenyl)-2-(1-methylpiperidin-4-yl)-1,3-thiazol-4-yl]-1-(2,6-dichlorophenyl)pyridin-2(1H)-one] | – | 1.4 | 1.4 | ≥ 10 | 90
